Assays:
Human Cot = Human Cot (Homo sapiens (Human), UniProt P41279); assay: High Throughput Cot Biochemical Assay (KinEASE TR-FRET); conditions: recombinant human Cot catalytic domain, 400 μM ATP
Procedure: Example 24: High Throughput Cot Biochemical Assay
Human Cot enzyme activity was measured using KinEASE (Cisbio), a time-resolved fluorescence resonance energy transfer (TR-FRET) immunoassay. In this assay, Cot-catalyzes the phosporylation of a XL665-labeled peptide substrate. Europium conjugated […] specific antibody binds the resulting phosphorylated peptide. Formation of phosphorylated peptide is quantified by TR-FRET with Europium as the donor and XL665 the acceptor in a 2-step endpoint assay. Purified recombinant human Cot catalytic domain (30-397 amino acids) was purchased from Carna Biosciences. In brief, test compounds serially diluted in DMSO were delivered into Proxy white, low volume, 384 well plates using the Echo 550 acoustic liquid dispenser (Labcyte®). Cot enzyme and substrates were dispensed into assay plates using a Multi-Flo (Bio-Tek Instruments). The standard 5 μL reaction mixture contained 400 μM ATP, 1 μM STK3 peptide, 5 nM of Cot in reaction buffer (10 mM MOPS, pH 7.0, 0.02% NaN3, 0.5 mg/mL BSA, 10 mM MgOAc, 1 mM DTT, 0.025% NP-40, 1.5% glycerol) and 0.1% DMSO. After 2.5 hrs of incubation at room temperature, 5 μL of Stop and Detect Solution (1:200 Europium Cryptate labeled anti-phosphorylated peptide antibody solution and 125 nM strepavidin-XL665 Tracer in a 50 mM Hepes pH 7.0 detection buffer containing sufficient EDTA) was added. The plate was then further incubated for 120 minutes at room temperature and read using an Envision 2103 Multilabeled reader (PerkinElmer) with excitation/emission/FRET emission at 340 nm/615 nm/665 nm, respectively. Fluorescence intensities at 615 nm and 665 nm emission wavelengths were expressed as a ratio (665 nm/615 nm).

TNFα = assay: Cot Monocyte TNFα Cell Based Assay; conditions: LPS-stimulated cryopreserved human monocytes, TNFα by TR-FRET
Procedure: Example 23: Cot Monocyte TNFα Cell Based Assay
Cryopreserved human monocytes (Stem Cell Technologies) were thawed, diluted in RPMI with Glutamax (10 mM HEPES, 1× Pen-Strep, 55 μM β-mercaptoethanol, 1 mM Sodium pyruvate) media containing 10% FBS to 0.125×10^6 cells/ml and recovered at 37° C. for 2 hours. The cell suspension was then plated at a density of 5,000 cells/well onto black 384 well Greiner clear bottom plates. Plates were pre-spotted with test compounds and serially diluted in DMSO where 200 nL/well were delivered using the Echo 550 acoustic liquid dispenser (Labcyte®) for a final DMSO concentration of 0.5%. Plated cells were treated with compound for 1 hour at 37° C. Cells were then stimulated with 50 μg/ml of LPS (Sigma) excluding outside columns of plate used for unstimulated cell control wells. Cells were incubated for an additional 4 hours at 37° C. Cells were then spun out of the media and 5 μl of sample were taken and analyzed for total TNFα content using the TR-FRET Human TNFα detection system (CisBio). This system utilizes two labeled antibodies (cryptate and XL665) that bind to two different epitopes of the TNFα molecule and produce FRET signal proportional to the concentration of TNFα in the sample. Detection antibodies are mixed 50:50 and 5 μL were dispensed into each well. Plates were covered with clear seals and incubated at room temp overnight. The following morning plates were read using an Envision 2103 Multilabeled reader (PerkinElmer) with excitation/emission/FRET emission at 340 nm/615 nm/665 nm, respectively. Fluorescence intensities at 615 nm and 665 nm emission wavelengths were expressed as a ratio (665 nm/615 nm). Percent of control was calculated as follows: % Control=100×(RatioSample−Ratio0% stimulation)/(Ratio100% Stimulation−Ratio0% Stimulation) where unstimulated cells (0% stimulation) were the negative control and stimulated cells (100% stimulation) were used as the positive control.

Human Cot, sequence (P41279 30-397): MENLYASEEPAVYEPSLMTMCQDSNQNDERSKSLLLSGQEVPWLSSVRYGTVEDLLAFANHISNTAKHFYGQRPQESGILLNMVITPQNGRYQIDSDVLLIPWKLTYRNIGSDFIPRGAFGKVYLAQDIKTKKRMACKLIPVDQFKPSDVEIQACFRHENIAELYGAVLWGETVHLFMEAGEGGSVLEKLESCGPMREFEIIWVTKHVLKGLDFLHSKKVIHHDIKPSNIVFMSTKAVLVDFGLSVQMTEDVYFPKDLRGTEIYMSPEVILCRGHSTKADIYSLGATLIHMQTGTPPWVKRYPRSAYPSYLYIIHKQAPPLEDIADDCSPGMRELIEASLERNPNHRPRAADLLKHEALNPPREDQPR

| Structure (SMILES) | IC50 (Human Cot) [nM] | EC50 (TNFα) [nM] |
| --- | --- | --- |
| Cn1ccc2c([C@H](Nc3cc(Cl)c4ncnc(NCC(C)(C)C)c4c3)c3cn(C45CC(C4)C5)nn3)cccc2c1=O [I-27, (S)-5-((1-(bicyclo[1.1.1]pentan-1-yl)-1H-1,2,3-triazol-4-yl)((8-chloro-4-(neopentylamino)quinazolin-6-yl)amino)methyl)-2-methylisoquinolin-1(2H)-one] | 1.7 | 12.1 |
| CC(C)(C)CNc1ncnc2ccc(N[C@@H](c3ccc(F)cc3)c3cn(C4CC4)nn3)cc12 [I-2, (S)-N^6-((1-cyclopropyl-1H-1,2,3-triazol-4-yl)(4-fluorophenyl)methyl)-N^4-neopentylquinazoline-4,6-diamine] | 7.7 | 85 |
| Cc1c(C#N)cccc1[C@H](Nc1cc(Cl)c2ncnc(NCC(C)(C)C)c2c1)c1cn(C2(C(F)F)CC2)nn1 [I-23, (S)-3-(((8-chloro-4-(neopentylamino)quinazolin-6-yl)amino)(1-(1-(difluoromethyl)cyclopropyl)-1H-1,2,3-triazol-4-yl)methyl)-2-methylbenzonitrile] | 1.6 | – |
| O=C(OCc1ccccc1)N1CCC(n2cc(C(Nc3cc(Cl)c4ncnc(Nc5ccc(F)c(Cl)c5)c4c3)c3ccccc3)nn2)CC1 (centres unmarked) [II-1, benzyl 4-(4-(((8-chloro-4-((3-chloro-4-fluorophenyl)amino)quinazolin-6-yl)amino)(phenyl)methyl)-1H-1,2,3-triazol-1-yl)piperidine-1-carboxylate] | 8480 | – |
| Cc1nc(F)ccc1[C@H](Nc1cc(Cl)c2ncnc(NCC(C)(C)C)c2c1)c1cn(C2(C(F)F)CC2)nn1 [I-21, (S)-8-chloro-N^6-((1-(1-(difluoromethyl)cyclopropyl)-1H-1,2,3-triazol-4-yl)(6-fluoro-2-melhylpyridin-3-yl)methyl)-N^4-neopentylquinazoline-4,6-diamine] | 1.9 | 28 |
| [2H][C@](Nc1ccc2ncnc(NCC3(C)CCOCC3)c2c1)(c1ccc(F)cc1)c1cn(C2CC2)nn1 [I-3, (S)-N^6-((1-cyclopropyl-1H-1,2,3-triazol-4-yl)(4-fluorophenyl)methyl-d)-N^4-((4-methyltetrahydro-2H-pyran-4-yl)methyl)quinazoline-4,6-diamine] | 11 | 296 |
| [2H][C@](Nc1cc(C#N)c2ncnc(NCC(C)(C)C)c2c1)(c1ccc(F)cc1)c1cn(C2CC2)nn1 [I-14, (S)-6-(((1-cyclopropyl-1H-1,2,3-triazol-4-yl)(4-fluorophenyl)methyl-d)amino)-4-(neopentylamino) quinazoline-8-carbonitrile] | 2.1 | 42 |
| CC(C)(C)CNc1ncnc2ccc(N[C@H](c3cn(C4CC4)nn3)c3ccccc3Cl)cc12 [I-8, (S)-N^6-((2-chlorophenyl)(1-cyclopropyl-1H-1,2,3-triazol-4-yl)methyl)-N^4-neopentylquinazoline-4,6-diamine] | 13 | 169 |
| [2H][C@](Nc1ccc2ncnc(N[C@H](CC)c3ccccc3)c2c1)(c1ccc(F)cc1)c1cn(C2CC2)nn1 [I-4, N^6-((S)-(1-cyclopropyl-1H-1,2,3-triazol-4-yl)(4-fluorophenyl)methyl-d)-N^4-((R)-1-phenylpropyl) quinazoline-4,6-diamine] | 43 | 796 |
| Fc1ccc(Nc2ncnc3ccc(N[C@@H](c4ccc(Cl)cc4)c4cn(C5COC5)nn4)cc23)cc1Cl [II-7, (S)-N^4-(3-chloro-4-fluorophenyl)-N^6-((4-chlorophenyl)(1-(oxetan-3-yl)-1H-1,2,3-triazol-4-yl)methyl) quinazoline-4,6-diamine] | 284 | – |
| Fc1ccc(Nc2ncnc3ccc(N[C@@H](c4ccc(Cl)cc4)c4cn(C5CCNCC5)nn4)cc23)cc1Cl [II-6, (S)-N^4-(3-chloro-4-fluorophenyl)-N^6-((4-chlorophenyl)(1-(piperidin-4-yl)-1H-1,2,3-triazol-4-yl)methyl) quinazoline-4,6-diamine] | 49 | – |
| [2H][C@](Nc1ccc2ncnc(Nc3cnc(F)c(F)c3)c2c1)(c1ccc(F)cc1)c1cn(C2CC2)nn1 [II-11, (S)-N^6-((1-cyclopropyl-1H-1,2,3-triazol-4-yl)(4-fluorophenyl)methyl-d)-N^4-(5,6-difluoropyridin-3-yl)quinazoline-4,6-diamine] | 74 | 645 |
| CCN1CCC(n2cc([C@@H](Nc3cc(Cl)c4ncnc(Nc5ccc(F)c(Cl)c5)c4c3)c3ccc(Cl)cc3)nn2)CC1 [II-10, (S)-8-chloro-N^4-(3-chloro-4-fluorophenyl)-N^6-((4-chlorophenyl)(1-(1-ethylpiperidin-4-yl)-1H-1,2,3-triazol-4-yl)methyl) quinazoline-4,6-diamine] | 17 | 527 |
| CC(C)(C)CNc1ncnc2c(C#N)cc(N[C@H](c3cn(C4(C(F)(F)F)CC4)nn3)c3cccc4ncsc34)cc12 [I-17, (S)-6-((benzo[d]thiazol-7-yl(1-(1-(trifluoromethyl)cyclopropyl)-1H-1,2,3-triazol-4-yl)methyl)amino)-4-(neopentylamino) quinazoline-8-carbonitrile] | 3.3 | 59 |
| [2H][C@](Nc1cc(Cl)c2ncnc(N[C@H](CCC#N)c3ccccc3)c2c1)(c1ccc(F)cc1)c1cn(C2CC2)nn1 [I-11, (R)-4-((8-chloro-6-(((S)-(1-cyclopropyl-1H-1,2,3-triazol-4-yl)(4-fluorophenyl)methyl-d)amino)quinazolin-4-yl)amino)-4-phenylbutanenitrile] | 46 | 671 |
| Fc1ccc(Nc2ncnc3ccc(N[C@@H](c4ccc(Cl)cc4)c4cn(C5CCN(C6COC6)CC5)nn4)cc23)cc1Cl [II-8, (S)-N4-(3-chloro-4-fluorophenyl)-N6-((4-chlorophenyl)(1-(1-(oxetan-3-yl)piperidin-4-yl)-1H-1,2,3-triazol-4-yl)methyl) quinazoline-4,6-diamine] | 318 | 1240 |
| [2H][C@@](Nc1cc(C#N)c2ncnc(NCC(C)(C)C)c2c1)(c1cn(C2CC2)nn1)c1ccccc1Cl [I-19, (S)-6-(((2-chlorophenyl)(1-cyclopropyl-1H-1,2,3-triazol-4-yl)methyl-d)amino)-4-(neopentylamino) quinazoline-8-carbonitrile] | 2.4 | 20 |
| CCN1CCC(n2cc(C(Nc3cc(Cl)c4ncnc(Nc5ccc(F)c(Cl)c5)c4c3)c3ccccc3)nn2)CC1 (centres unmarked) [II-3, 8-chloro-N^4-(3-chloro-4-fluorophenyl)-N^6-((1-(1-ethylpiperidin-4-yl)-1H-1,2,3-triazol-4-yl)(phenyl)methyl) quinazoline-4,6-diamine] | 19 | – |
| [2H]C(Nc1ccc2ncnc(NC(CC#N)c3ccccc3)c2c1)(c1ccc(F)cc1)c1cn(C2CC2)nn1 [I-5, 3-((6-(((S)-(1-cyclopropyl-1H-1,2,3-triazol-4-yl)(4-fluorophenyl)methyl-d)amino)quinazolin-4-yl)amino)-3-phenylpropanenitrile] | 53 | 2500 |
| Fc1ccc(Nc2ncnc3c(Cl)cc(NC(c4ccccc4)c4cn(C5CCNCC5)nn4)cc23)cc1Cl (centres unmarked) [II-2, 8-chloro-N^4-(3-chloro-4-fluorophenyl)-N^6-(phenyl(1-(piperidin-4-yl)-1H-1,2,3-triazol-4-yl)methyl) quinazoline-4,6-diamine] | 28 | – |
| CC(C)(C)N1CCC(n2cc([C@@H](Nc3ccc4ncnc(Nc5ccc(F)c(Cl)c5)c4c3)c3ccc(Cl)cc3)nn2)CC1 [II-5, (S)-N^6-((1-(1-(tert-butyl)piperidin-4-yl)-1H-1,2,3-triazol-4-yl)(4-chlorophenyl)methyl)-N^4-(3-chloro-4-fluorophenyl) quinazoline-4,6-diamine] | 72 | – |

From US10059695B2, “Cot modulators and methods of use thereof” (Gilead Sciences, Inc., priority 2016, dated 2018)
